# Laboratory results: patent US9624170B2, “4-(piperrazin-1-yl)-pyrrolidin-2-one compounds as monoacylglycerol lipase (MAGL) inhibitors” (TAKEDA PHARMACEUTICAL COMPANY LIMITED, priority 2013, dated 2017)
# Target: T1, human MAGL (His-hMAGL) (Homo sapiens, UniProt Q99685)
# T1 construct: made in house; host or cells: Escherichia coli BL21(DE3)
# T1 sequence (Q99685 1-303): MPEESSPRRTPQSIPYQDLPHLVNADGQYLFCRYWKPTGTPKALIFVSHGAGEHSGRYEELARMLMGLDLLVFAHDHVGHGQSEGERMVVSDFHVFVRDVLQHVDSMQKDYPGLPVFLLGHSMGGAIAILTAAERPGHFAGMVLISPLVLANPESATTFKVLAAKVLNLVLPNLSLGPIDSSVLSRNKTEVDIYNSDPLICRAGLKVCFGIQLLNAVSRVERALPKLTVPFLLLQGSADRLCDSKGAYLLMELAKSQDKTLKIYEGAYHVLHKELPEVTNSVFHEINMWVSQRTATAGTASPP
# Test: Measurement of MAGL inhibitory activity by mass spectrometry
# Format: biochemical
# Conditions: MAGL inhibitory rate, test compound 10 μM, His-hMAGL, substrate 2-arachidonylglycerol, RapidFire-mass spectrometry
# How it was run: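 His-tagged human MAGL was reacted with 150 μM 2-arachidonylglycerol substrate (stock, added by 5 μL) for 10 min at room temperature, then stopped with formic acid. Arachidonic acid product was quantified by RapidFire–triple-quadrupole MS in negative SRM mode, corrected by arachidonic acid-d8, and converted to percent inhibition.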
row,inhibition at 10 µM [%],SMILES
1,100,"N#Cc1cccc(-c2ccc(N3CC(N4CCN(C(=O)c5nccs5)CC4)CC3=O)cc2)c1 (stereo not shown) [Example 185, 4′-(2-oxo-4-(4-(1,3-thiazol-2-ylcarbonyl)piperazin-1-yl)pyrrolidin-1-yl)biphenyl-3-carbonitrile]"
2,96,"O=C(c1nccs1)N1CCN(C2CC(=O)N(c3ccc(-c4cccc(CO)c4)cc3)C2)CC1 (stereo not shown) [Example 187, 1-(3′-(hydroxymethyl)biphenyl-4-yl)-4-(4-(1,3-thiazol-2-ylcarbonyl)piperazin-1-yl)pyrrolidin-2-one]"
3,96,"CC(=O)Nc1cccc(-c2ccc(N3CC(N4CCN(C(=O)c5nccs5)CC4)CC3=O)cc2)c1 (stereo not shown) [Example 191, N-(4′-(2-oxo-4-(4-(1,3-thiazol-2-ylcarbonyl)piperazin-1-yl)pyrrolidin-1-yl)biphenyl-3-yl)acetamide]"
4,96,"NS(=O)(=O)c1cccc(-c2ccc(N3CC(N4CCN(C(=O)c5nccs5)CC4)CC3=O)cc2)c1 (stereo not shown) [Example 194, 4′-(2-oxo-4-(4-(1,3-thiazol-2-ylcarbonyl)piperazin-1-yl)pyrrolidin-1-yl)biphenyl-3-sulfonamide]"
5,89,"O=C(c1nccs1)N1CCN(C2CC(=O)N(c3ccc(-c4cccnc4)cc3)C2)CC1 (stereo not shown) [Example 197, 1-(4-(pyridin-3-yl)phenyl)-4-(4-(1,3-thiazol-2-ylcarbonyl)piperazin-1-yl)pyrrolidin-2-one]"
6,101,Cc1cccc(-c2ccc(N3CC(N4CCN(C(=O)c5nccs5)CC4)CC3=O)cc2)c1 (stereo not shown) [Example 208]
7,96,"N#Cc1ccccc1-c1ccc(N2CC(N3CCN(C(=O)c4nccs4)CC3)CC2=O)cc1 (stereo not shown) [Example 209, 4′-(2-oxo-4-(4-(1,3-thiazol-2-ylcarbonyl)piperazin-1-yl)pyrrolidin-1-yl)biphenyl-2-carbonitrile]"
8,91,"N#Cc1ccc(-c2ccc(N3CC(N4CCN(C(=O)c5nccs5)CC4)CC3=O)cc2)cc1 (stereo not shown) [Example 210, 4′-(2-oxo-4-(4-(1,3-thiazol-2-ylcarbonyl)piperazin-1-yl)pyrrolidin-1-yl)biphenyl-4-carbonitrile]"
9,100,"O=C(c1nccs1)N1CCN(C2CC(=O)N(c3ccc(-c4ccccc4)cc3)C2)CC1 (stereo not shown) [Example 213, 1-(biphenyl-4-yl)-4-(4-(1,3-thiazol-2-ylcarbonyl)piperazin-1-yl)pyrrolidin-2-one]"
10,93,"NC(=O)Cc1cccc(-c2ccc(N3CC(N4CCN(C(=O)c5nccs5)CC4)CC3=O)cc2)c1 (stereo not shown) [Example 214, 2-(4′-(2-oxo-4-(4-(1,3-thiazol-2-ylcarbonyl)piperazin-1-yl)pyrrolidin-1-yl)biphenyl-3-yl)acetamide]"
11,97,"CS(=O)(=O)Nc1cccc(-c2ccc(N3CC(N4CCN(C(=O)c5nccs5)CC4)CC3=O)cc2)c1 (stereo not shown) [Example 216, N-(4′-(2-oxo-4-(4-(1,3-thiazol-2-ylcarbonyl)piperazin-1-yl)pyrrolidin-1-yl)biphenyl-3-yl)methanesulfonamide]"
12,102,"Cc1ccc(-c2ccc(N3CC(N4CCN(C(=O)c5nccs5)CC4)CC3=O)cc2)cc1 (stereo not shown) [Example 219, 1-(4′-methylbiphenyl-4-yl)-4-(4-(1,3-thiazol-2-ylcarbonyl)piperazin-1-yl)pyrrolidin-2-one]"

# Further lines, the compound ahead of its results:
row,SMILES,inhibition at 10 µM [%]
1,"Cc1cc(-c2ccc(N3CC(N4CCN(C(=O)c5nccs5)CC4)CC3=O)cc2)n(C)n1 (stereo not shown) [Example 180, 1-(4-(1,3-dimethyl-1H-pyrazol-5-yl)phenyl)-4-(4-(1,3-thiazol-2-ylcarbonyl)piperazin-1-yl)pyrrolidin-2-one]",94
2,"Cc1nn(C)cc1-c1ccc(N2CC(N3CCN(C(=O)c4nccs4)CC3)CC2=O)cc1 (stereo not shown) [Example 181, 1-(4-(1,3-dimethyl-1H-pyrazol-4-yl)phenyl)-4-(4-(1,3-thiazol-2-ylcarbonyl)piperazin-1-yl)pyrrolidin-2-one]",94
3,"Cc1c(-c2ccc(N3CC(N4CCN(C(=O)c5nccs5)CC4)CC3=O)cc2)cnn1C (stereo not shown) [Example 182, 1-(4-(1,5-dimethyl-1H-pyrazol-4-yl)phenyl)-4-(4-(1,3-thiazol-2-ylcarbonyl)piperazin-1-yl)pyrrolidin-2-one]",92
4,"O=C(c1nccs1)N1CCN(C2CC(=O)N(c3ccc(-c4ccoc4)cc3)C2)CC1 (stereo not shown) [Example 184, 1-(4-(3-furyl)phenyl)-4-(4-(1,3-thiazol-2-ylcarbonyl)piperazin-1-yl)pyrrolidin-2-one]",98
5,"O=C(c1nccs1)N1CCN(C2CC(=O)N(c3ccc(-c4ccccc4Cl)cc3)C2)CC1 (stereo not shown) [Example 188, 1-(2′-chlorobiphenyl-4-yl)-4-(4-(1,3-thiazol-2-ylcarbonyl)piperazin-1-yl)pyrrolidin-2-one]",99
6,"Cc1nc(C)c(-c2ccc(N3CC(N4CCN(C(=O)c5nccs5)CC4)CC3=O)cc2)s1 (stereo not shown) [Example 189, 1-(4-(2,4-dimethyl-1,3-thiazol-5-yl)phenyl)-4-(4-(1,3-thiazol-2-ylcarbonyl)piperazin-1-yl)pyrrolidin-2-one]",97
7,"NS(=O)(=O)c1ccc(-c2ccc(N3CC(N4CCN(C(=O)c5nccs5)CC4)CC3=O)cc2)cc1 (stereo not shown) [Example 193, 4′-(2-oxo-4-(4-(1,3-thiazol-2-ylcarbonyl)piperazin-1-yl)pyrrolidin-1-yl)biphenyl-4-sulfonamide]",97
8,"O=C(c1nccs1)N1CCN(C2CC(=O)N(c3ccc(-c4ccncc4)cc3)C2)CC1 (stereo not shown) [Example 196, 1-(4-(pyridin-4-yl)phenyl)-4-(4-(1,3-thiazol-2-ylcarbonyl)piperazin-1-yl)pyrrolidin-2-one]",83
9,"O=C(c1nccs1)N1CCN(C2CC(=O)N(c3cccc(-c4cccnc4Cl)c3)C2)CC1 (stereo not shown) [Example 199, 1-(3-(2-chloropyridin-3-yl)phenyl)-4-(4-(1,3-thiazol-2-ylcarbonyl)piperazin-1-yl)pyrrolidin-2-one]",101
10,"O=C1Cc2ccc(-c3cccc(N4CC(N5CCN(C(=O)c6nccs6)CC5)CC4=O)c3)cc2N1 (stereo not shown) [Example 200, 6-(3-(2-oxo-4-(4-(1,3-thiazol-2-ylcarbonyl)piperazin-1-yl)pyrrolidin-1-yl)phenyl)-1,3-dihydro-2H-indol-2-one]",98
11,"O=C(c1nccs1)N1CCN(C2CC(=O)N(c3ccnc(-c4ccccc4)c3)C2)CC1 (stereo not shown) [Example 201, 1-(2-phenylpyridin-4-yl)-4-(4-(1,3-thiazol-2-ylcarbonyl)piperazin-1-yl)pyrrolidin-2-one]",84
12,"Cc1ccncc1-c1cccc(N2CC(N3CCN(C(=O)c4nccs4)CC3)CC2=O)c1 (stereo not shown) [Example 202, 1-(3-(4-methylpyridin-3-yl)phenyl)-4-(4-(1,3-thiazol-2-ylcarbonyl)piperazin-1-yl)pyrrolidin-2-one]",102
13,"Cc1cnccc1-c1cccc(N2CC(N3CCN(C(=O)c4nccs4)CC3)CC2=O)c1 (stereo not shown) [Example 203, 1-(3-(3-methylpyridin-4-yl)phenyl)-4-(4-(1,3-thiazol-2-ylcarbonyl)piperazin-1-yl)pyrrolidin-2-one]",99
14,"Cc1cc(-c2cccc(N3CC(N4CCN(C(=O)c5nccs5)CC4)CC3=O)c2)ccn1 (stereo not shown) [Example 204, 1-(3-(2-methylpyridin-4-yl)phenyl)-4-(4-(1,3-thiazol-2-ylcarbonyl)piperazin-1-yl)pyrrolidin-2-one]",101
15,"O=C(c1nccs1)N1CCN([C@@H]2CC(=O)N(c3ccc4c(cnn4-c4ccc(F)cc4)c3)C2)CC1 [Example 205, (4R)-1-(1-(4-fluorophenyl)-1H-indazol-5-yl)-4-(4-(1,3-thiazol-2-ylcarbonyl)piperazin-1-yl)pyrrolidin-2-one]",100
16,"Cc1cncc(-c2cccc(N3CC(N4CCN(C(=O)c5nccs5)CC4)CC3=O)c2)c1 (stereo not shown) [Example 206, 1-(3-(5-methylpyridin-3-yl)phenyl)-4-(4-(1,3-thiazol-2-ylcarbonyl)piperazin-1-yl)pyrrolidin-2-one]",98
17,"O=C(c1nccs1)N1CCN(C2CC(=O)N(c3ccc(-c4ccco4)cc3)C2)CC1 (stereo not shown) [Example 207, 1-(4-(2-furyl)phenyl)-4-(4-(1,3-thiazol-2-ylcarbonyl)piperazin-1-yl)pyrrolidin-2-one]",97
18,"O=C(c1nccs1)N1CCN(C2CC(=O)N(c3ccc(-c4cnn5ccccc45)cc3)C2)CC1 (stereo not shown) [Example 212, 1-(4-(pyrazolo[1,5-a]pyridin-3-yl)phenyl)-4-(4-(1,3-thiazol-2-ylcarbonyl)piperazin-1-yl)pyrrolidin-2-one]",100
19,"O=C(c1nccs1)N1CCN(C2CC(=O)N(c3ccc(-c4ccccc4C(F)(F)F)cc3)C2)CC1 (stereo not shown) [Example 215, 4-(4-(1,3-thiazol-2-ylcarbonyl)piperazin-1-yl)-1-(2′-(trifluoromethyl)biphenyl-4-yl)pyrrolidin-2-one]",101
20,"O=C(c1nccs1)N1CCN(C2CC(=O)N(c3ccc(-c4ccsc4)cc3)C2)CC1 (stereo not shown) [Example 217, 4-(4-(1,3-thiazol-2-ylcarbonyl)piperazin-1-yl)-1-(4-(3-thienyl)phenyl)pyrrolidin-2-one]",98
21,"O=C(c1nccs1)N1CCN(C2CC(=O)N(c3ccc(-c4cccs4)cc3)C2)CC1 (stereo not shown) [Example 218, 4-(4-(1,3-thiazol-2-ylcarbonyl)piperazin-1-yl)-1-(4-(2-thienyl)phenyl)pyrrolidin-2-one]",99
22,"Cc1ccccc1-c1cccc(N2CC(N3CCN(C(=O)c4cscn4)CC3)CC2=O)c1 (stereo not shown) [Example 220, 1-(2′-methylbiphenyl-3-yl)-4-(4-(1,3-thiazol-4-ylcarbonyl)piperazin-1-yl)pyrrolidin-2-one]",103
